Series [1] has as its target membrane-bound tripeptidylpeptidase II (Rattus norvegicus, UniProt Q64560). Briefly: Measurement of the activity of membrane-bound tripeptidylpeptidase (release of Amc from A-AP-Amc, fluorimetry). Conditions: apparent dissociation constant calculated from the 50% inhibitory concentration and the KM of the substrate (23 μM), rat brain membranes, 50 μM A-AP-Amc.
Method: Membranes from rat brain were obtained by centrifugation (200,000×g min) of a homogenate prepared in 10 volumes of 50 mM potassium phosphate buffer, pH 7.4.
After washing thoroughly, the centrifugation pellet is taken up in the buffer containing 10% glycerol and 0.1% Brij 35 in order to obtain a concentration of 25 mg of proteins/ml.
The release of Amc is evaluated by fluorimetry.

Structures can show the parent of a compound that is named as a salt. Where a SMILES comes first, the peptide text is derived from it. [ ]: non-standard residue; d: D form. The star is where a group is joined. ξ: configuration not given here. Oic = O=C(O)[C@@H]1C[C@@H]2CCCC[C@@H]2N1; Pro(cis-4-F) = O=C(O)[C@@H]1C[C@H](F)CN1; Tic = O=C(O)[C@@H]1Cc2ccccc2CN1; Abu = CC[C@H](N)C(=O)O; ξAbu = CCC(N)C(=O)O; NHBu = CCCCN*; NHPr = CCCN*

Chain of membrane-bound tripeptidylpeptidase II (Q64560 whole entry): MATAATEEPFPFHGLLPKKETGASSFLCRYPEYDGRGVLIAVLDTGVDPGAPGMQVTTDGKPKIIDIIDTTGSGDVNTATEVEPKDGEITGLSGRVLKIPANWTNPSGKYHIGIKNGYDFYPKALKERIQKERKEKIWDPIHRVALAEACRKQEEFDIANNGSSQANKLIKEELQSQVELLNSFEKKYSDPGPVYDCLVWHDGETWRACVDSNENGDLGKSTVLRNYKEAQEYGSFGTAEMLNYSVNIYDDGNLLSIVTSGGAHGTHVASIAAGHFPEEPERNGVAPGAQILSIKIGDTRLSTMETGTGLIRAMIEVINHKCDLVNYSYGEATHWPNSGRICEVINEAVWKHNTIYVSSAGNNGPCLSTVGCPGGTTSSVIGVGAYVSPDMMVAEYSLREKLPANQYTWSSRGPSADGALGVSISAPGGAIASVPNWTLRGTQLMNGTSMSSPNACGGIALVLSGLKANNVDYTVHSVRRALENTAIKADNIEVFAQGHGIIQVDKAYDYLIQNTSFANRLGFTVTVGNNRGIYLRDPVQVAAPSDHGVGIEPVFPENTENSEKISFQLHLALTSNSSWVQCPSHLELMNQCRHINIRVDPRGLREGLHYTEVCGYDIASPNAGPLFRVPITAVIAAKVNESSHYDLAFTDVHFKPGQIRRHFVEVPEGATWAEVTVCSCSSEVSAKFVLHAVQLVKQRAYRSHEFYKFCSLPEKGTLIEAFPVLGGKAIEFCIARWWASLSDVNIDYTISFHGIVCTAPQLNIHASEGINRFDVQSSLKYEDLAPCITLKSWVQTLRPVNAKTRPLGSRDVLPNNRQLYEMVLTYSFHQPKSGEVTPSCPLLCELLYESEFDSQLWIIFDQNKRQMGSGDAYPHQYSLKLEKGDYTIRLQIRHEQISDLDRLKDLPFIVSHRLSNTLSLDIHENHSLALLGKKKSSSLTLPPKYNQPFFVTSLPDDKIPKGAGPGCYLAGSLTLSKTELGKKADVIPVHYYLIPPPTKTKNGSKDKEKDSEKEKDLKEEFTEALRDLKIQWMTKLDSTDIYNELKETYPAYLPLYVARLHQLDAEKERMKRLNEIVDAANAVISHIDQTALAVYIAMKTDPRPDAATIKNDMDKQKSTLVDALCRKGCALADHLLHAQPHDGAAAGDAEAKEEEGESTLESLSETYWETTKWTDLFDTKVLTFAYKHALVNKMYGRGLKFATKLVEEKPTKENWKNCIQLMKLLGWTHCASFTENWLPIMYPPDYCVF

For `CCCCCNC(=O)[C@@H]1CCCN1C(=O)[C@@H](N)CC` [Example 3, 1-(2(S)-aminobutyryl)-L-proline n-pentylamide], the Ki in series [1] (Ki) is 0.27 µM.
Consider `CCCCNC(=O)C1Cc2c(ccc(OC)c2OC)N1C(=O)[C@@H](N)CC` (mixture of isomers) [Example 32, 1-(2(S)-aminobutyryl)-4,5-dimethoxyindoline-2(R/S)-carboxylic Acid Butylamide Oxalate], for which the Ki in series [1] (Ki) was 0.0096 µM.
Regarding `CCCCNC(=O)[C@@H]1C[C@H](F)CN1C(=O)[C@@H](N)CC` [Example 11, 1-(2(S)-amino-butyryl)-(4(S)-fluoro)-L-proline n-butylamide] (H-[Abu]-[Pro(cis-4-F)]-NHBu), the Ki in series [1] (Ki) was 0.32 µM.
With `CC[C@H](C)CNC(=O)[C@@H]1CCCN1C(=O)[C@@H](N)CC` [Example 5, 1-(2(S)-aminobutyryl)-L-proline [2(S)methyl]butylamide], the Ki in series [1] (Ki) was 0.5 µM.
As for `CCCCNC(=O)C1Cc2cc(OC)ccc2N1C(=O)[C@H](C)N` (mixture of isomers) [Example 25, 1-(L-alanyl)-5-methoxyindoline-2(R/S)-carboxylic Acid Butylamide Oxalate], in series [1] (Ki), the Ki is 0.026 µM.
What is called melting point is the temperature, or range, at which the solid turns liquid. For the molecule `CCCCCNC(=O)[C@@H]1CCCN1C(=O)[C@@H](N)CC` (as salt: oxalate) [Example 3, 1-(2(S)-aminobutyryl)-L-proline n-pentylamide], the melting point was in the range of 140 to 141 °C.
Turning to `CC[C@H](N)C(=O)N1CCC[C@H]1C(=O)NCC(C)C` [Example 7, 1-(2(S)-amino-butyryl)-L-proline isobutylamide], the Ki in series [1] (Ki) is 0.32 µM.
Take `CCCCNC(=O)C1N(C(=O)[C@@H](N)CC)c2ccccc2C1(C)C.O=C(O)C(=O)O` (mixture of isomers) [Example 28, 1-(2(S)-aminobutyryl)-3,3-dimethylindoline-2(R/S)-carboxylic Acid Butylamide Oxalate]: the melting point fell in the range of 127 to 133 °C.
Take `CCCCNC(=O)C1Cc2cc(OC)ccc2N1C(=O)[C@@H](N)CC` (mixture of isomers) (as salt: oxalate) [Example 18, 1-(2(S)-amino-butyryl)-2(R/S)-(5-methoxy)indolinecarboxylic Acid n-butylamide]: the melting point fell in the range of 95 to 105 °C.
For `CCCNC(=O)[C@@H]1CCCN1C(=O)[C@@H](N)CC` [Example 6, 1-(2(S)-amino-butyryl)-L-proline n-propylamide] (H-[Abu]-Pro-NHPr), the Ki in series [1] (Ki) is 0.08 µM.
In turn, `CCCCNC(=O)C1Cc2cc(F)ccc2N1C(=O)[C@@H](N)CC` (mixture of isomers) (as salt: oxalate) [Example 20, 1-(2(S)-aminobutyryl)-2(R/S)-(5-fluoro)indolinecarboxylic Acid N-butylamide] had a melting point of 105 to 110 °C.
On to `CCCCNC(=O)C1Cc2cc(F)ccc2N1C(=O)[C@@H](N)CC` (mixture of isomers) [Example 20, 1-(2(S)-aminobutyryl)-2(R/S)-(5-fluoro)indolinecarboxylic Acid N-butylamide], for which the Ki in series [1] (Ki) is 0.012 µM.
Turning to `CCCCNC(=O)C1c2ccccc2CN1C(=O)[C@@H](N)CC` (mixture of isomers) [Example 23, 2-(2(S)-aminobutyryl)-1-(R/S)-isoindolinecarboxylic Acid N-butylamide], the Ki in series [1] (Ki) was 0.143 µM.
In the case of `CCCCNC(=O)[C@@H]1Cc2cc(OC)ccc2N1C(=O)[C@@H](N)CC` [18 (S,S) isomer], the Ki in series [1] (Ki) is 0.006 µM.
`CCCCNC(=O)C1Cc2cc(O)ccc2N1C(=O)[C@@H](N)CC.O=C(O)C(=O)O` (mixture of isomers) [Example 34, 1-2(S)-aminobutyryl-5-hydroxyindoline-2(R/S)-carboxylic Acid Butylamide Oxalate] displayed a melting point of 129 to 130 °C.
`CCCCNC(=O)C1Cc2cc(C)ccc2N1C(=O)[C@@H](N)CC.O=C(O)C(=O)O` (mixture of isomers) [Example 35, 1-2(S)-aminobutyryl-5-methylindoline-2(R/S)-carboxylic Acid Butylamide Oxalate] returned a melting point of 110 to 112 °C.
On to `CCCCNC(=O)C1C(C)c2ccccc2N1C(=O)C(N)CC` (single isomer, unassigned) [Example 30], for which, in series [1] (Ki), the Ki is 0.032 µM.
Same read-out and setting: the result for `CCCCNC(=O)C1Cc2c(OC)cccc2N1C(=O)[C@@H](N)CC` (mixture of isomers) [Example 27, 1-(2(S)-aminobutyryl)-4-methoxyindoline-2(R/S)-carboxylic Acid Butylamide Oxalate] reads 0.014 µM.
On to `CCCCNC(=O)C1Cc2c(OC)cccc2N1C(=O)[C@@H](N)CC.O=C(O)C(=O)O` (mixture of isomers) [Example 27, 1-(2(S)-aminobutyryl)-4-methoxyindoline-2(R/S)-carboxylic Acid Butylamide Oxalate], for which the melting point was 117 to 119 °C.
As for `CCCCNC(=O)C1Cc2ccc(OC)cc2N1C(=O)[C@@H](N)CC` (mixture of isomers) [Example 19, 1-(2(S)-aminobutyryl)-2(R/S)-(6-methoxy)indolinecarboxylic acid n-butylamide], the Ki in series [1] (Ki) is 0.077 µM.
The molecule `CC[C@H](N)C(=O)N1CCC[C@H]1C(=O)NCC(C)C` (as salt: trifluoroacetate) [Example 7, 1-(2(S)-amino-butyryl)-L-proline isobutylamide] registered a melting point of 58 to 61 °C.
On to `CCCCNC(=O)[C@@H]1CCCN1C(=O)[C@@H](N)C(C)C` [Example 8, L-valyl-L-proline n-butylamide] (H-Val-Pro-NHBu), for which the Ki in series [1] (Ki) is 0.57 µM.
Consider `CCNC(=O)[C@@H]1Cc2ccccc2N1C(=O)[C@@H](N)CC` [Example 17, 1-(2(S)-aminobutyryl)-2(s)-indolinecarboxylic Acid ethylamide], for which the melting point lay within 115 to 120 °C.
Same read-out and setting: the same measure for `CCCCNC(=O)[C@@H]1CCCN1C(=O)[C@@H](N)CC` (as salt: oxalate) [Example 4, 1-(2(S)-amino-butyryl)-L-proline n-butylamide] (H-[Abu]-Pro-NHBu): 165 to 167 °C.
Take `CCCCNC(=O)C1Cc2cc(OC)ccc2N1C(=O)[C@@H](N)CC` (mixture of isomers) [Example 18, 1-(2(S)-amino-butyryl)-2(R/S)-(5-methoxy)indolinecarboxylic Acid n-butylamide]: the Ki in series [1] (Ki) is 0.008 µM.
`CCCCNC(=O)[C@@H]1C[C@@H]2CCCC[C@@H]2N1C(=O)[C@@H](N)CC` (as salt: salt) [Example 22, 1-(2(S)-aminobutyryl)-2(S)-[(3aS,7aS)-perhydro]indolinecarboxylic Acid N-butylamide] (H-[Abu]-[Oic]-NHBu) yielded a melting point of 168 to 169 °C.
As for `CCCNC(=O)[C@@H]1Cc2ccccc2N1C(=O)[C@@H](N)CC` (as salt: oxalate) (hydrate or solvate), the melting point is 130 to 131 °C.
In the case of `CCCCNC(=O)[C@@H]1Cc2ccccc2CN1C(=O)[C@@H](N)CC` [Example 13, 2-(2(S)-amino-butyryl)-1,2,3,4-tetrahydro-3(S)-isoquinolinecarboxylic Acid n-butylamide] (H-[Abu]-[Tic]-NHBu), the Ki in series [1] (Ki) is 0.04 µM.
In turn, `CCCCNC(=O)[C@@H]1Cc2cc(Cl)ccc2N1C(=O)[C@@H](N)CC.O=C(O)C(F)(F)F` [Example 36, 1-(2(S)-aminobutyryl)-5-chloroindoline-2(S)-carboxylic Acid Butylamide Trifluoroacetate] had a melting point of 83 to 84 °C.
Consider `CCCCNC(=O)C1C(C)c2ccccc2N1C(=O)C(N)CC` (single isomer, unassigned) [Example 29], for which the Ki in series [1] (Ki) is 0.593 µM.
For `CCCCNC(=O)C1N(C(=O)[C@@H](N)CC)c2ccccc2C1(C)C` (mixture of isomers) [Example 28, 1-(2(S)-aminobutyryl)-3,3-dimethylindoline-2(R/S)-carboxylic Acid Butylamide Oxalate], the Ki in series [1] (Ki) was 0.864 µM.
Take `CC[C@H](N)C(=O)N1CCC[C@H]1C(=O)NCCCSC` [Example 2, 1-(2(S)-amino-butyryl)-L-proline 3-(methylthio)propylamide]: in series [1] (Ki), the Ki was 0.3 µM.
The same measure, in the same setting: the same measure for `CCC(N)C(=O)N1CCC[C@H]1C(N)=O` (stereo partly drawn) [2 (S)-aminobutyryl-L-prolineamide, reference compound] (H-[ξAbu]-Pro-NH2): 0.57 µM.
Turning to `CCCCNC(=O)[C@H]1Cc2cc(OC)ccc2N1C(=O)[C@@H](N)CC` [18 (S,R) isomer], the Ki in series [1] (Ki) was 0.241 µM.
On to `CCCCNC(=O)C1Cc2cc(O)ccc2N1C(=O)[C@@H](N)CC` (mixture of isomers) [Example 34, 1-2(S)-aminobutyryl-5-hydroxyindoline-2(R/S)-carboxylic Acid Butylamide Oxalate], for which, in series [1] (Ki), the Ki is 0.0104 µM.
On to `CCCCCCNC(=O)[C@@H]1CCCN1C(=O)[C@@H](N)C(C)C` [Example 1, L-valyl-L-proline n-hexylamide], for which the Ki in series [1] (Ki) was 0.9 µM.
Turning to `CCCCNC(=O)[C@@H]1CCCN1C(=O)[C@@H](N)CC` [Example 4, 1-(2(S)-amino-butyryl)-L-proline n-butylamide] (H-[Abu]-Pro-NHBu), in series [1] (Ki), the Ki is 0.1 µM.
Turning to `CCCCNC(=O)C1Cc2cc(OC)ccc2N1C(=O)[C@@H](N)C(C)C` (mixture of isomers) [Example 24, 1-(L-valyl)-5-methoxyindoline-2(R/S)-carboxylic Acid Butylamide Oxalate], the Ki in series [1] (Ki) is 0.146 µM.
On to `CCCCNC(=O)C1Cc2cc(OCc3ccccc3)ccc2N1C(=O)[C@@H](N)CC` (mixture of isomers) [Example 21], for which the Ki in series [1] (Ki) is 1 µM.
`CCCCNC(=O)[C@@H]1C[C@H](Cc2ccccc2)CN1C(=O)[C@@H](N)CC` [Example 12, 1-(2(S)-aminobutyryl)-(4(S)-benzyl)-L-proline n-butylamide]: the Ki in series [1] was 0.14 µM.
Turning to “L-alanyl-L-prolyldifluoro-L-borovaline borohydride [Example 10]”, in series [1], the Ki is 0.0003 µM.
As to `CCCCNC(=O)C1Cc2cc(C)ccc2N1C(=O)[C@@H](N)CC` (mixture of isomers) [Example 35, 1-2(S)-aminobutyryl-5-methylindoline-2(R/S)-carboxylic Acid Butylamide Oxalate], the Ki in series [1] (Ki) is 0.0226 µM.
